Source: patent US6156700A, “3-(1,2-Benzisothiazol- and isoxazol-5-yl)-2,4(1H,3H)-pyrimidinedione or thione and 3-(1,2-benzisothiazol- and isoxazol-5-yl)-4(3H)-pyrimidinone or thione herbicidal agents” (American Cyanmid Company, priority 1998, dated 2000)

Tests used:
[1] = test system: Ragweed, Common, Ambrosia artemisifolia; assay: Postemergence herbicidal evaluation, AMBEL; format: in vivo, L.
Outline: (§1)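 Rates of about 0.0157–0.500 kg/ha were delivered through a 40 psi spray nozzle to seedlings grown around two weeks, using a 50/50 acetone/water vehicle with 0.5% TWEEN 20. A 0–9 visual score versus control followed 4–5 weeks later.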

[2] = test system: Sicklepod, Cassia obtusifolia; assay: Postemergence herbicidal evaluation, CASOB; format: in vivo, L.
Outline: as §1

Galium, Galium aparine = assay: Postemergence herbicidal evaluation, GALAP; format: in vivo
Outline: as §1

[3] = test system: Foxtail, Green, Setaria viridis; assay: Postemergence herbicidal evaluation, SETVI; format: in vivo, (L.) Beau
Outline: as §1

[4] = test system: Rice, Tebonnet, Oryza sativa; assay: Postemergence herbicidal evaluation, ORYSAT; format: in vivo, (L.) Tebonnet
Outline: as §1

[5] = test system: Wheat, Winter, cv Riband, Triticum aestivum; assay: Postemergence herbicidal evaluation, TRZAWR; format: in vivo
Outline: as §1

[6] = test system: Velvetleaf, Abutilon theophrasti; assay: Preemergence herbicidal evaluation, ABUTH; format: in vivo, Medic.; details: 0.2500 kg/ha
Outline: (§2)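 Values are 0–9 visual ratings of stand, vigor, malformation, size, chlorosis and overall appearance relative to a control, scored 4 to 5 weeks after treatment. Test compound in aqueous acetone was sprayed onto soil right after seeding, at rates equivalent to about 0.0156–0.500 kg per hectare.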

[7] = test system: Ragweed, Common, Ambrosia artemisifolia; assay: Preemergence herbicidal evaluation, AMBEL; format: in vivo, L.; details: 0.2500 kg/ha
Outline: as §2

[8] = test system: Morningglory Spp., Ipomoea Spp.; assay: Preemergence herbicidal evaluation, IPOSS; format: in vivo; details: 0.2500 kg/ha
Outline: as §2

[9] = test system: Barnyardgrass, Echinochloa crus-galli; assay: Preemergence herbicidal evaluation, ECHCG; format: in vivo, (L.) Beau; details: 0.2500 kg/ha
Outline: as §2

Corn, Field, Zea mays = assay: Preemergence herbicidal evaluation, ZEAMX; format: in vivo, L.; details: 0.2500 kg/ha
Outline: as §2

[10] = test system: ECHORC Watergrass (Calif.); assay: Preemergence weed control, flooded paddy (Table III); format: in vivo, Echinochloa oryzoides; design: scale not given here
Outline: (§3)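 Seeds or propagules sown in silt loam under 1.5 to 3 cm standing flood water; compound in 50/50 aqueous/acetone pipetted into the water at about 0.0313 to 0.500 kg/ha active ingredient. Greenhouse-held; herbicidal effect rated on a scale 3-4 weeks after treatment.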

CYPIR Rice Flatsedge [11] = assay: as above; format: in vivo, Cyperus iria; design: scale not given here
Outline: as §3

MOOVA Monochoria [12] = assay: as above; format: in vivo, Monochoria vaginalis; design: scale not given here
Outline: as §3

[13] = test system: SAGPY Arrowhead (Pygmaea); assay: as above; format: in vivo, Sagittaria pygmaea; design: scale not given here
Outline: as §3

[14] = test system: ECHORC Watergrass (Calif.); assay: Postemergence weed control, flooded paddy (Table IV); format: in vivo, Echinochloa oryzoides; design: scale not given here
Outline: (§4)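 Weeds 3 to 5 cm tall and rice seedlings at the 1.5 to 2.5 leaf stage were flooded, water held 1.5 to 3 cm above soil. Compounds in 50/50 v/v aqueous/acetone went into the flood water at about 0.0313 to 0.500 kg/ha. Injury was rated visually three to four weeks later.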

CYPIR Rice Flatsedge [15] = assay: as above; format: in vivo, Cyperus iria; design: scale not given here
Outline: as §4

MOOVA Monochoria [16] = assay: as above; format: in vivo, Monochoria vaginalis; design: scale not given here
Outline: as §4

## COc1ccc(C)cc1-c1nsc2ccc(-n3c(=O)cc(C(F)(F)F)n(C)c3=O)cc12 [Compound 1, 3-[3-(6-Methoxy-m-tolyl)-1,2-benzisothiazol-5-yl]-1-methyl-6-(trifluoromethyl)-2,4(1H,3H)-pyrimidinedione]
[1]; 0.0630 kg/ha
  herbicide rating (0-9): 9.0
[1]; 0.2500 kg/ha
  herbicide rating (0-9): 9.0
[2]; 0.0630 kg/ha
  herbicide rating (0-9): 9.0
[2]; 0.2500 kg/ha
  herbicide rating (0-9): 8.0
Galium, Galium aparine; 0.0630 kg/ha
  herbicide rating (0-9): 9.0
Galium, Galium aparine; 0.2500 kg/ha
  herbicide rating (0-9): 9.0
[3]; 0.0630 kg/ha
  herbicide rating (0-9): 9.0
[3]; 0.2500 kg/ha
  herbicide rating (0-9): 9.0
[4]; 0.0630 kg/ha
  herbicide rating (0-9): 4.3
[4]; 0.2500 kg/ha
  herbicide rating (0-9): 5.0
[5]; 0.0630 kg/ha
  herbicide rating (0-9): 5.3
[5]; 0.2500 kg/ha
  herbicide rating (0-9): 5.5
[6]
  herbicide rating (0-9): 9.0
[7]
  herbicide rating (0-9): 9.0
[8]
  herbicide rating (0-9): 4.0
[9]
  herbicide rating (0-9): 9.0
Corn, Field, Zea mays
  herbicide rating (0-9): 6.5
[10]; 0.0313 kg/ha
  herbicidal effect rating: 9.0
[10]; 0.0625 kg/ha
  herbicidal effect rating: 9.0
[10]; 0.1250 kg/ha
  herbicidal effect rating: 9.0
[10]; 0.2500 kg/ha
  herbicidal effect rating: 9.0
[10]; 0.5000 kg/ha
  herbicidal effect rating: 9.0
CYPIR Rice Flatsedge [11]; 0.0313 kg/ha
  herbicidal effect rating: 9.0
CYPIR Rice Flatsedge [11]; 0.0625 kg/ha
  herbicidal effect rating: 9.0
CYPIR Rice Flatsedge [11]; 0.1250 kg/ha
  herbicidal effect rating: 9.0
CYPIR Rice Flatsedge [11]; 0.2500 kg/ha
  herbicidal effect rating: 9.0
CYPIR Rice Flatsedge [11]; 0.5000 kg/ha
  herbicidal effect rating: 9.0
MOOVA Monochoria [12]; 0.0313 kg/ha
  herbicidal effect rating: 9.0
MOOVA Monochoria [12]; 0.0625 kg/ha
  herbicidal effect rating: 9.0
MOOVA Monochoria [12]; 0.1250 kg/ha
  herbicidal effect rating: 9.0
MOOVA Monochoria [12]; 0.2500 kg/ha
  herbicidal effect rating: 9.0
MOOVA Monochoria [12]; 0.5000 kg/ha
  herbicidal effect rating: 9.0
[13]; 0.0313 kg/ha
  herbicidal effect rating: 3.3
[13]; 0.0625 kg/ha
  herbicidal effect rating: 5.0
[13]; 0.1250 kg/ha
  herbicidal effect rating: 6.7
[13]; 0.2500 kg/ha
  herbicidal effect rating: 8.3
[13]; 0.5000 kg/ha
  herbicidal effect rating: 8.5
[14]; 0.1250 kg/ha
  herbicidal effect rating: 6.5
[14]; 0.2500 kg/ha
  herbicidal effect rating: 8.0
[14]; 0.5000 kg/ha
  herbicidal effect rating: 9.0
CYPIR Rice Flatsedge [15]; 0.1250 kg/ha
  herbicidal effect rating: 9.0
CYPIR Rice Flatsedge [15]; 0.2500 kg/ha
  herbicidal effect rating: 9.0
CYPIR Rice Flatsedge [15]; 0.5000 kg/ha
  herbicidal effect rating: 9.0
MOOVA Monochoria [16]; 0.1250 kg/ha
  herbicidal effect rating: 4.5
MOOVA Monochoria [16]; 0.2500 kg/ha
  herbicidal effect rating: 5.5
MOOVA Monochoria [16]; 0.5000 kg/ha
  herbicidal effect rating: 6.5

## Cc1nsc2ccc(-n3c(=O)cc(C(F)(F)F)n(C)c3=O)cc12 [Compound 6, 1-Methyl-3-(3-methyl-1,2-benzisothiazol-5-yl)-6-(trifluoromethyl)-2,4(1H,3H)-pyrimidinedione]
[1]; 0.0630 kg/ha
  herbicide rating (0-9): 6.5
[1]; 0.2500 kg/ha
  herbicide rating (0-9): 9.0
[2]; 0.0630 kg/ha
  herbicide rating (0-9): 2.5
[2]; 0.2500 kg/ha
  herbicide rating (0-9): 8.0
Galium, Galium aparine; 0.0630 kg/ha
  herbicide rating (0-9): 5.0
Galium, Galium aparine; 0.2500 kg/ha
  herbicide rating (0-9): 9.0
[3]; 0.0630 kg/ha
  herbicide rating (0-9): 2.0
[3]; 0.2500 kg/ha
  herbicide rating (0-9): 9.0
[4]; 0.0630 kg/ha
  herbicide rating (0-9): 1.8
[4]; 0.2500 kg/ha
  herbicide rating (0-9): 5.0
[5]; 0.0630 kg/ha
  herbicide rating (0-9): 1.5
[5]; 0.2500 kg/ha
  herbicide rating (0-9): 5.0
[6]
  herbicide rating (0-9): 9.0
[7]
  herbicide rating (0-9): 9.0
[8]
  herbicide rating (0-9): 9.0
[9]
  herbicide rating (0-9): 9.0
Corn, Field, Zea mays
  herbicide rating (0-9): 9.0
[10]; 0.0625 kg/ha
  herbicidal effect rating: 6.0
[10]; 0.1250 kg/ha
  herbicidal effect rating: 8.0
[10]; 0.2500 kg/ha
  herbicidal effect rating: 9.0
[10]; 0.5000 kg/ha
  herbicidal effect rating: 9.0
CYPIR Rice Flatsedge [11]; 0.0625 kg/ha
  herbicidal effect rating: 9.0
CYPIR Rice Flatsedge [11]; 0.1250 kg/ha
  herbicidal effect rating: 9.0
CYPIR Rice Flatsedge [11]; 0.2500 kg/ha
  herbicidal effect rating: 9.0
CYPIR Rice Flatsedge [11]; 0.5000 kg/ha
  herbicidal effect rating: 9.0
MOOVA Monochoria [12]; 0.0625 kg/ha
  herbicidal effect rating: 9.0
MOOVA Monochoria [12]; 0.1250 kg/ha
  herbicidal effect rating: 9.0
MOOVA Monochoria [12]; 0.2500 kg/ha
  herbicidal effect rating: 9.0
MOOVA Monochoria [12]; 0.5000 kg/ha
  herbicidal effect rating: 9.0
[13]; 0.0625 kg/ha
  herbicidal effect rating: 4.0
[13]; 0.1250 kg/ha
  herbicidal effect rating: 7.0
[13]; 0.2500 kg/ha
  herbicidal effect rating: 7.0
[13]; 0.5000 kg/ha
  herbicidal effect rating: 9.0
[14]; 0.1250 kg/ha
  herbicidal effect rating: 9.0
[14]; 0.2500 kg/ha
  herbicidal effect rating: 9.0
[14]; 0.5000 kg/ha
  herbicidal effect rating: 9.0
CYPIR Rice Flatsedge [15]; 0.1250 kg/ha
  herbicidal effect rating: 9.0
CYPIR Rice Flatsedge [15]; 0.2500 kg/ha
  herbicidal effect rating: 9.0
CYPIR Rice Flatsedge [15]; 0.5000 kg/ha
  herbicidal effect rating: 9.0
MOOVA Monochoria [16]; 0.1250 kg/ha
  herbicidal effect rating: 9.0
MOOVA Monochoria [16]; 0.2500 kg/ha
  herbicidal effect rating: 9.0
MOOVA Monochoria [16]; 0.5000 kg/ha
  herbicidal effect rating: 9.0
